Experimental data from US20100217003A1, “1,2,3,4-TETRAHYDROISOQUINOLINE DERIVATIVES HAVING EFFECTS OF PREVENTING AND TREATING DEGENERATIVE AND INFLAMMATORY DISEASES” (priority 2006, published 2010).

Tests used:
[1] = Free-radical scavenging activity (DPPH); settings: various concentrations
Experimental: Measurement of Free-Radical Scavenging Activity
Antioxidant activity was evaluated based on scavenging activity of 2,2-diphenyl-1-picrylhydrazyl (DPPH) radical. DPPH was dissolved in 80% methanol to make a final concentration of 100 ? . 8 ? of EHMTIQ (11a) dissolved in dimethyl sulfoxide reacted with 232 ? of DPPH radical solution. The reaction mixture was incubated for 25 minutes at RT, and then the absorbance of DPPH was measured at 517 nm using a SpectraMax GEMINI XS fluorescence spectrophotometer (Molecular Devices, Sunnyvale, Calif., USA).
Free radicals produced by an activated microglial cell cause oxidative stress and structural transformation in protein, nucleic acid and lipids of a neuron, which lead to cell injury. Accordingly, the assay was performed to determine whether EHMTIQ (11a) has free radical scavenging activity.

BV-2 cell = assay: Production of NADPH oxidase-derived superoxide in LPS-stimulated BV-2 cells (WST-1); format: cell-based, mouse
Experimental: Measurement of Superoxide Production
BV-2 microglial cells were planted in a 96-well Petri dish at 0.5×10^5 cells/ml. After a 24-hour culture, the cells were washed twice with Hank's balanced salt solution (HBSS) without phenol red and treated with EHMTIQ (11a) and WST-1. However, some samples were not treated with 20 ? superoxide dismutase (SOD; 800 UI/ml). All samples were incubaed at 37° C. for 10 minutes. The absorbance of a sample was read at 450 nm using a SpectraMax Plus microplate spectrophotometer. The yield of superoxide was calculated according to difference in absorbance value between the samples with and without SOD.
The activation of a microglial cell led to the activation of NADPH oxidase and the production of superoxide. Accordingly, the assay was performed to determine whether EHMTIQ (11a) affects production of NADPH oxidase-derived superoxide. The LPS-stimulated BV-2 cell samples were treated with various concentrations of EHMTIQ (11a) and then the level of released superoxide was measured. The results are illustrated in FIG. 2.

SK-N-BE(2)C cells = assay: Protective effect against neuron death due to substances released from activated microglial cells (LDH); format: cell-based; settings: culture medium from 50 EHMTIQ + LPS-treated BV-2 cells
Experimental: Measurement of Lactate Dehydrogenase (LDH) Activity
0.26 mM NADH, 2.87 mM sodium pyruvate and 100 mM potassium phosphate buffer (pH 7.4) were added to cell culture medium (50 ? ) to make a total volume of 200 ? , and then cultured at RT. The resultant NAD^+ was measured at 340 nm for 5 minutes at 2-second intervals using a microplate spectrophotometer (SPECTRA MAX 340 pc; Molecular Devices, Menlo Park, Calif., USA).
BV-2 microglial cells were planted in a 24-well Petri dish at a density of 2.5×10^5 cells/ml. After an overnight culture, the cells were treated with […] lipopolysaccharide and EHMTIQ (11a) and then cultured for 12 more hours. At the same time, SK-N-BE(2)C cells were planted in a 24-well Petri dish at 0.5×10^5 cells/ml and cultured for 24 hours. The culture medium for SK-N-BE(2) C cells was removed and the culture medium for BV-2 was added thereto. After 24 hours, the death rate of SK-N-BE(2)C cells was measured using LDH.
The assay was performed to determine whether EHMTIQ (11a) protects a dopaminergic cell from injuries due to inflammatory substances released from an activated microglial cell. SK-N-BE(2)C cells were transferred to a culture medium containing substances released from LPS-stimulated BV-2 cells, and the cell death rate was measured by activity of LDH contained in the culture medium and compared with that in the EHMTIQ (11a)-treated BV-2 culture medium.

COX-2 mRNA = assay: Expression of COX-2 genes in LPS-stimulated BV-2 cells (RT-PCR); format: cell-based, mouse
Experimental: (§1) RT-PCR for GTPCH, iNOS, TNF-α, IL-1β and COX-2
(§2) 5 ? each of total RNA samples isolated from BV-2 cells were subjected to reverse-transcription (RT), and then polymerase chain reaction (PCR) for 30 cycles under the conditions of 94° C. for 30 seconds, 60° C. for 40 seconds and 72° C. for one minute. Primers used in the PCR were as follows: iNOS (forward, ATGTCCGAAG-CAAACATCAC; reverse, TAATGTC CAGGAAGTAGGTG), TNF-α (forward, CA-[…] reverse, CAGAGCAATGACTC-CAAAGTAGACCT), IL-1β (forward, […]; reverse, CAGGACAGGTAT AGATTCTTTCCTTT), COX-2 (forward, […]; reverse, […]), GTPCH (forward, GGATACCAGGAGACCAT CTCA; reverse, TAGCATGGTGC-TAGTGACAGT). RT-PCR for B2M was simultaneously performed as internal control. The PCR products were subjected to electrophoresis in a 1.5% agarose gel, thereby confirming the presence of a desired size of single band.
The gene expression of cyclooxigenase-2 (COX-2) stimulating a prostaglandin synthesis causing oxidative stress to neurons increased by the activation of a microglial cell. LPS-stimulated BV-2 cell samples were treated with various concentrations of EHMTIQ (11a), and the expression of COX-2 genes was estimated by RT-PCR. The results are illustrated in FIG. 5.

[2] = target: T1, GTP cyclohydrolase I (GTPCH) (Homo sapiens, UniProt P30793); assay: Direct effect on catalysis of GTPCH; format: biochemical; settings: not illustrated
T1 sequence (P30793 1-250): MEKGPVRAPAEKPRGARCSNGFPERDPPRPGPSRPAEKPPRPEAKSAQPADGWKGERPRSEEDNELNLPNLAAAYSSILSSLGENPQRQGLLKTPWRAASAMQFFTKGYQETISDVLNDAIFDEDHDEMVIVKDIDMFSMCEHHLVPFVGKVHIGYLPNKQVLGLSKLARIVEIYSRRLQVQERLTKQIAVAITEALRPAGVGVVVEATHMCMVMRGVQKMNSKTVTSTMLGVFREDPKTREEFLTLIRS

TNF-α mRNA = assay: Expression of TNF-α genes in LPS-stimulated BV-2 cells (RT-PCR); format: cell-based, mouse
Experimental: as §1, §2
(§3) The assay was performed to determine whether EHMTIQ (11a) affects TNF-α production in an activated microglial cell. LPS-stimulated BV-2 cell samples were treated with various concentrations of EHMTIQ (11a) and the expression of TNF-α genes was estimated by RT-PCR. The results are illustrated in FIG. 3.

IL-1β mRNA = assay: Expression of IL-1β genes in LPS-stimulated BV-2 cells (RT-PCR); format: cell-based, mouse
Experimental: as §1, §2
as §3, with “to investigate” for “to determine”, “affects IL-β” for “affects TNF-α”, “cell smaples” for “cell samples”, “of IL-1β” for “of TNF-α”, “FIG. 4.” for “FIG. 3.”

Compound: CCC(=O)N1CCc2cc(OC)c(O)cc2C1 [EHMTIQ (11a), 2-ethylcarbonyl-7-hydroxy-6-methoxy-1,2,3,4-tetrahydroisoquinoline]
- scavenging activity of DPPH radicals [1]: proportional to the concentration
- superoxide production (BV-2 cell; 5 (unit as image)): 62±3.1%
- superoxide production (BV-2 cell; 10 (unit as image)): 65±3.1%
- cell injury rate of SK-N-BE(2)C cells (SK-N-BE(2)C cells): reduced
- COX-2 expression (COX-2 mRNA; 2.5 (unit as image)): 62±3%
- COX-2 expression (COX-2 mRNA; 5 (unit as image)): 75±3%
- COX-2 expression (COX-2 mRNA; 10 (unit as image)): 83±2%
- direct effect on catalysis of GTPCH [2]: did not directly relate to the catalysis of GTPCH
- mRNA level of TNF-α (TNF-α mRNA; 2.5 (unit as image)): decreased the mRNA level to a statistically significant level
- mRNA level of TNF-α compared to the control only treated with LPS (TNF-α mRNA; 5 (unit as image)): 74±1%
- mRNA level of TNF-α compared to the control only treated with LPS (TNF-α mRNA; 100 (unit as image)): 36±1%
- mRNA level of IL-1β (IL-1β mRNA; 2.5 (unit as image)): 74±0.7%
- mRNA level of IL-1β (IL-1β mRNA; 100 (unit as image)): significant decrease in the LPS effect
